Test results: patent publication US20170000749A1, “Methods for Treating Cognitive Disorders Using Inhibitors of Histone Deacetylase” (Forum Pharmaceuticals, Inc., priority 2008, published 2017)
Read-outs that look alike come from different tables or passages of the source.

Columns and labels:
[1] = target: one or more of HDAC-1, HDAC-2, HDAC-3, HDAC-4, HDAC-5, HDAC-6, HDAC-7, HDAC-8, HDAC-9, HDAC-10 and HDAC-11; experiment: Inhibition of Histone Deacetylase Enzymatic Activity (Boc-Lys(Ac)-AMC substrate, Fluor-de-Lys developer); assay type: biochemical; settings: read-out: HDAC Inhibition (IC50 μM) HDAC Enzyme
Protocol: The following protocol is used to assay the compounds of the disclosure.
The mixture is pre-incubated for 5 minutes at room temperature. The reaction is started by bringing the temperature to 37° C. and adding 16 μl substrate. Total reaction volume is 50 μl.
In the Tables 8, 9 and 10, A≦0.05 μM; 0.05 μM<B≦0.1 μM; 0.1 μM<C≦1 μM; and 1 μM<D≦10 μM.

[2] = test system: HDAC activity in primary mouse cortical cultures; experiment: Whole-Cell Histone Deacetylase (HDAC) Inhibition Assay in Primary Mouse Cortical Cultures; assay type: cell-based
Protocol: Primary neocortical cultures are established through the dissection of the neocortex from E17 embryos harvested from time-pregnant Balb/C mice. Following dissection, the neocortical tissue specimens undergo digestion by incubation at 37° C. for 10 minutes in dissection medium (1×HBSS/10 mM HEPES/1 mM Sodium Pyruvate) supplemented with (0.25%) Trypsin and (0.1%) DNase I. Digested tissue is washed and resuspended in plating medium (NeuroBasal/10% HS/0.5 mM L-Glutamine (Invitrogen Corporation)) for trituration. Additional plating medium is added, and the contents are passed over a 70 um cell-strainer. The cell-density is quantified using a hemacytometer, and dilutions are made to allow for the plating of 50000 cells/well/100 uL in 96-well PDL-coated plates. Plates are incubated for 4-5 hours in 37° C./5% CO2-incubator, after which time the entire volume is exchanged to feeding medium (NeuroBasal/2% B-27 Serum-free supplement/0.5 mM L-Glutamine/1% Penicillin-Streptomycin (Invitrogen Corporation)). The cultures undergo two 50% fresh feeding medium exchanges at 3 days in vitro (DIV3), and again at DIV7.
Compounds for testing are resuspended in dimethyl sulphoxide (DMSO), and further diluted in DMSO for a ten-point dose-response curve, with appropriate controls. Each master plate is assayed in triplicate. […] Three DIV9 culture plates are leveled to 50 uL/well, onto which each has overlaid 50 uL/well of the diluted daughter plate. The plates are returned to the 37° C./5% CO2-incubator for 16-18 hours.
The next step of the assay involves the exposure of a HDAC colorimetric substrate, comprising an acetylated lysine side chain, to the compound-treated neuronal cultures. Based on the ability of the compound to inhibit HDAC activity in the neuronal cultures, the substrate is deacetylated by HDACs, and subsequently sensitized. […] Compound-incubated culture plates are again leveled to 50 uL/well and 2 uL/well of 7.5 mM BOC-Lys (Ac)-AMC substrate is added and thoroughly mixed. Plates are returned to the 37° C./5% CO2-incubator for 1 hour.
The final addition to the culture plates entails treatment with a Fluor de Lys™-based developer (BIOMOL Research Laboratories, Inc.) to produce a fluorophore, which is analyzed using a spectrophotometer. The developer solution (1×Fluor de Lys™/1% NP-40/1 uM TSA in HDAC Buffer Solution) is prepared, and 50 uL/well is added to each of the wells of the culture plates. […] The plates are returned to the 37° C./5% CO2-incubator for 10-15 minutes, after which time, they are removed and set in the dark at room temperature for 5-10 minutes.
Primary neocortical cultures were established through the dissection of the neocortex from E17 embryos harvested from time-pregnant Balb/C mice. Following dissection, the neocortical tissue specimens underwent digestion by incubation at 37° C. for 10 minutes in dissection medium (1×HBSS/10 mM HEPES/1 mM Sodium Pyruvate) supplemented with (0.25%) Trypsin and (0.1%) DNase I. Digested tissue was washed and resuspended in plating medium (NeuroBasal/10% HS/0.5 mM L-Glutamine (Invitrogen Corporation)) for trituration. Additional plating medium was added, and the contents passed over a 70 um cell-strainer. The cell-density was quantified using a hemacytometer, and dilutions made to allow for the plating of 50000 cells/well/100 uL in 96-well PDL-coated plates. Plates were incubated for 4-5 hours in 37° C./5% CO2-incubator, after which time the entire volume was exchanged to feeding medium (NeuroBasal/2% B-27 Serum-free supplement/0.5 mM L-Glutamine/l % Penicillin-Streptomycin (Invitrogen Corporation)). The cultures underwent two 50% fresh feeding medium exchanges at 3 days in vitro (DIV3), and again at DIV7.
Compounds for testing were resuspended in dimethyl sulphoxide (DMSO), and further diluted in DMSO for a ten-point dose-response curve, with appropriate controls. Each master plate was assayed in triplicate.

[3] = whole-cell (WC), mouse cortical neurons, Table 10, read-out: HDAC Inhibition (IC50 μM) WC mouse cortical neurons
[4] = whole-cell (WC), mouse cortical neurons, Table 9, read-out: HDAC Inhibition (IC50 μM) WC mouse cortical neurons
[5] = whole-cell (WC), mouse cortical neurons, Table 8, read-out: HDAC Inhibition (IC50 μM) WC mouse cortical neurons

Structure (SMILES)	IC50 ([1]; Table 10) [µM]	IC50 [2, 3] [µM]	IC50 ([1]; Table 9) [µM]	IC50 [2, 4] [µM]	IC50 ([1]; Table 8) [µM]	IC50 [2, 5] [µM]	other results
O=C(CCCCCN1C(=O)c2cccnc2N(C2CC2)c2ccccc21)NO [6-(11-cyclopropyl-5-oxo-5H-benzo[b]pyrido[2,3-e][1,4]diazepin-6(11H)-yl)-N-hydroxyhexanamide]	0.1 to 1	1 to 5	–	–	–	–	–
O=C(CCCCCCN1C(=O)c2ccccc2N(C2CC2)c2ccccc21)NO [7-(5-cyclopropyl-11-oxo-5H-dibenzo[b,e][1,4]diazepin-10(11H)-yl)-N-hydroxyheptanamide]	0.1 to 1	1 to 5	–	–	–	–	–
O=C(CCCCCCN1C(=O)c2cccnc2N(C2CC2)c2ccccc21)NO [7-(11-cyclopropyl-5-oxo-5H-benzo[b]pyrido[2,3-e][1,4]diazepin-6(11H)-yl)-N-hydroxyheptanamide]	0.05 to 0.1	1 to 5	–	–	–	–	–
O=C(CCCCCCN1Cc2ccccc2Oc2ccccc21)NO [7-(dibenzo[b,f][1,4]oxazepin-10(11H)-yl)-N-hydroxyheptanamide]	0.1 to 1	> 15	–	–	–	–	–
O=C(CCCCCCCN1C(=O)c2cccnc2N(C2CC2)c2ccccc21)NO [8-(11-cyclopropyl-5-oxo-5H-benzo[b]pyrido[2,3-e][1,4]diazepin-6(11H)-yl)-N-hydroxyoctanamide]	0.1 to 1	< 1	–	–	–	–	–
O=C(CCCCCCC(=O)N1Cc2ccccc2Oc2ccccc21)NO [8-(dibenzo[b,f][1,4]oxazepin-10(11H)-yl)-N-hydroxy-8-oxooctanamide]	0.1 to 1	1 to 5	–	–	–	–	–
O=C(NO)c1cnc(N2C[C@@H]3C[C@H]2CN3C(=O)OCc2ccccc2)nc1 [(1S,4S)-benzyl 5-(5-(hydroxycarbamoyl)pyrimidin-2-yl)-2,5-diazabicyclo[2.2.1]heptane-2-carboxylate]	–	–	< 0.05	< 1	–	–	–
O=C(NO)c1cnc(N2C[C@@H]3C[C@H]2CN3C(=O)OC2CCCC2)nc1 [(1S,4S)-cyclopentyl 5-(5-(hydroxycarbamoyl)pyrimidin-2-yl)-2,5-diazabicyclo[2.2.1]heptane-2-carboxylate]	–	–	< 0.05	< 1	–	–	–
O=C(NO)c1cnc(N2C[C@@H]3C[C@H]2CN3C(=O)OCC2CC2)nc1 [(1S,4S)-cyclopropylmethyl 5-(5-(hydroxycarbamoyl)pyrimidin-2-yl)-2,5-diazabicyclo[2.2.1]heptane-2-carboxylate]	–	–	< 0.05	< 1	–	–	–
CC(C)COC(=O)N1C[C@@H]2C[C@H]1CN2c1ncc(C(=O)NO)cn1 [(1S,4S)-isobutyl 5-(5-(hydroxycarbamoyl)pyrimidin-2-yl)-2,5-diazabicyclo[2.2.1]heptane-2-carboxylate]	–	–	< 0.05	< 1	–	–	–
CC(C)OC(=O)N1C[C@@H]2C[C@H]1CN2c1ncc(C(=O)NO)cn1 [(1S,4S)-isopropyl 5-(5-(hydroxycarbamoyl)pyrimidin-2-yl)-2,5-diazabicyclo[2.2.1]heptane-2-carboxylate]	–	–	< 0.05	< 1	–	–	–
O=C(NO)c1cnc(N2C[C@@H]3C[C@H]2CN3C(=O)OCc2cccnc2)nc1 [(1S,4S)-pyridin-3-ylmethyl 5-(5-(hydroxycarbamoyl)pyrimidin-2-yl)-2,5-diazabicyclo[2.2.1]heptane-2-carboxylate]	–	–	< 0.05	< 1	–	–	–
CC(C)(C)OC(=O)N1C[C@@H]2C[C@H]1CN2c1ncc(C(=O)NO)cn1 [(1S,4S)-tert-butyl 5-(5-(hydroxycarbamoyl)pyrimidin-2-yl)-2,5-diazabicyclo[2.2.1]heptane-2-carboxylate]	–	–	< 0.05	< 1	–	–	–
O=C(NO)c1cnc(N2C[C@@H]3C[C@H]2CN3C(=O)OC2CCOCC2)nc1 [(1S,4S)-tetrahydro-2H-pyran-4-yl 5-(5-(hydroxycarbamoyl)pyrimidin-2-yl)-2,5-diazabicyclo[2.2.1]heptane-2-carboxylate]	–	–	< 0.05	< 1	–	–	–
O=C(NO)c1cnc(N2CCN(C3=Nc4ccccc4Oc4ccc(Cl)cc43)CC2)nc1 [(E)-2-(4-(2-chlorodibenzo[b,f][1,4]oxazepin-11-yl)piperazin-1-yl)-N-hydroxypyrimidine-5-carboxamide]	–	–	–	–	< 0.05	5 to 15	–
O=C(/C=C/c1ccc(CN2C(=O)c3cccnc3N(C3CC3)c3ccccc32)cc1)NO [(E)-3-(4-((11-cyclopropyl-5-oxo-5H-benzo[b]pyrido[2,3-e][1,4]diazepin-6(11H)-yl)methyl)phenyl)-N-hydroxyacrylamide]	< 0.05	< 1	–	–	–	–	–
O=C(/C=C/c1ccc(CN2c3ccccc3C=Cc3ccccc32)cc1)NO [(E)-3-(4-(((Z)-5H-dibenzo[b,f]azepin-5-yl)methyl)phenyl)-N-hydroxyacrylamide]	0.05 to 0.1	1 to 5	–	–	–	–	–
O=C(/C=C/c1ccc2c(c1)C=Cc1ccccc1N2CC1CC1)NO [(E)-3-((Z)-5-(cyclopropylmethyl)-5H-dibenzo[b,f]azepin-2-yl)-N-hydroxyacrylamide]	0.1 to 1	5 to 15	–	–	–	–	–
O=C(NO)c1ccc(CCNC2=Nc3ccccc3Oc3ccccc32)cc1 [(E)-4-(2-(dibenzo[b,f][1,4]oxazepin-11-ylamino)ethyl)-N-hydroxybenzamide]	–	–	–	–	0.1 to 1	5 to 15	–
O=C(NO)c1ccc(CNC2=Nc3ccccc3N(C3CC3)c3ccccc32)cc1 [(E)-4-((5-cyclopropyl-5H-dibenzo[b,e][1,4]diazepin-11-ylamino)methyl)-N-hydroxybenzamide]	–	–	–	–	0.1 to 1	5 to 15	–
O=C(NO)c1ccc(CNC2=Nc3ccccc3Oc3ccccc32)cc1 [(E)-4-((dibenzo[b,f][1,4]oxazepin-11-ylamino)methyl)-N-hydroxybenzamide]	–	–	–	–	< 0.05	< 1	–
O=C(NO)c1ccc(C2=Nc3ccccc3Oc3ccccc32)c(F)c1 [(E)-4-(dibenzo[b,f][1,4]oxazepin-11-yl)-3-fluoro-N-hydroxybenzamide]	–	–	–	–	1 to 10	5 to 15	–
O=C(NO)c1ccc(C2=Nc3ccccc3Oc3ccccc32)o1 [(E)-5-(dibenzo[b,f][1,4]oxazepin-11-yl)-N-hydroxyfuran-2-carboxamide]	–	–	–	–	1 to 10	> 15	–
O=C(NO)c1ccc(C2=Nc3ccccc3Oc3ccccc32)s1 [(E)-5-(dibenzo[b,f][1,4]oxazepin-11-yl)-N-hydroxythiophene-2-carboxamide]	–	–	–	–	< 0.05	1 to 5	–
O=C(NO)c1ccc(C2=Nc3ccccc3Oc3ccccc32)nc1 [(E)-6-(dibenzo[b,f][1,4]oxazepin-11-yl)-N-hydroxynicotinamide]	–	–	–	–	0.1 to 1	5 to 15	–
O=C(/C=C/c1ccc(CN2C(=O)CN=C(c3ccccc3)c3ccccc32)cc1)NO [(E)-N-hydroxy-3-(4-(((Z)-2-oxo-5-phenyl-2,3-dihydro-1H-benzo[e][1,4]diazepin-1-yl)methyl)phenyl)acrylamide]	0.05 to 0.1	–	–	–	–	–	IC50 ([2]; read-out: HDAC Inhibition (IC50 μM) WC mouse cortical neurons, Table 10): 1 to 5 µM
